Data as given in US9499509B2, “Dihydrochalcone derivatives and their use as antibiotic agents” (UNIVERSITÉ DU QUÉBEC À CHICOUTIMI, priority 2012, dated 2016).
≈ marks a conversion by molar mass, not a printed value. Counter-ions that a name gives are not always drawn. Like-named read-outs stand apart in the source and are kept apart here.

Test system: S. aureus wild type strain (ATCC 25923)
Test: Antibiotic assay (resazurin, Example 1), S. aureus wild type
Type: cell-based, Staphylococcus aureus
Method: Bacteria Strain. […] The MRSA were obtained as further described below.
Antibiotic agents. Cyprofloxacin and erythromycin were provided by Sigma-Aldrich. Gentamicin sulfate and vancomycin hydrochloride were provided by Calbiochem.
MRSA. Ten (10) strains of MRSA obtained as described above were tested along with an S. aureus wild type (WT) strain (ATCC25923).

[1] = S. aureus WT (ATCC 25923), read-out: IC50
[2] = Table 5, same values as IC50 of Table 2, read-out: S. aureus WT ATCC 25923 (toxicity on bacteria)

Row | Compound | IC50 (Staphylococcus aureus, ATCC25923, S. aureus WT ATCC 25923, read-out: IC50) | MIC (Staphylococcus aureus, ATCC25923, S. aureus WT ATCC 25923, read-out: Minimum Inhibitory Concentration (MIC)) | Minimum Inhibitory Concentration (MIC) (S. aureus WT (ATCC 25923)) | IC50 [1] | IC50 [2] | IC50 (Staphylococcus aureus, ATCC25923) | MIC (Staphylococcus aureus, ATCC25923, read-out: Minimum Inhibitory Concentration (MIC))
1 | O=C(O)c1cn(C2CC2)c2cc(N3CCNCC3)c(F)cc2c1=O [Ciprofloxacin, reference compound] | 400 ± 200 nM | 47.9 µM (≈ 15.9 µg/mL) |  |  |  |  | 
2 | O=C(CCc1ccccc1)c1c(O)cc(O)c(C/C=C/c2ccc(O)cc2)c1O [Compound III] |  |  | (5.81) μM | 2200 ± 600 nM | 2200 ± 600 nM |  | 
3 | COc1ccc(CCC(=O)c2c(O)cc(O)c(C/C=C/c3ccc(O)cc3)c2O)cc1 [Compound II] |  |  | (6.47) μM | 2700 ± 700 nM | 2700 ± 700 nM |  | 
4 | COc1cc(O)c(C(=O)CCc2ccc(O)cc2)c(O)c1C/C=C/c1ccc(O)cc1 [Compound I] |  |  | (6.87) μM | 2800 ± 900 nM | 2800 ± 900 nM |  | 
5 | CN[C@H](CC(C)C)C(=O)N[C@H]1C(=O)N[C@@H](CC(N)=O)C(=O)N[C@H]2C(=O)N[C@H]3C(=O)N[C@H](C(=O)N[C@H](C(=O)O)c4cc(O)cc(O)c4-c4cc3ccc4O)[C@H](O)c3ccc(c(Cl)c3)Oc3cc2cc(c3O[C@@H]2O[C@H](CO)[C@@H](O)[C@H](O)[C@H]2O[C@H]2C[C@](C)(N)[C@H](O)[C@H](C)O2)Oc2ccc(cc2Cl)[C@H]1O [Vancomycin, vancomycin hydrochloride, reference compound] |  |  |  |  |  | 400 ± 200 nM | 1.44 µM
